PubChem BioAssay AID2060496 (Molecular Pharmacology Branch, DTP, NCI, 2025)

Tested on: 276233-004-R-J1-PDC complex spheroid viability
Assay: Anticancer human tumor 276233-004-R-J1-PDC patient-derived colon adenocarcinoma cell line growth inhibition [GQUAD]
Conditions: for IC50: curve of first compound; for viability, T/C: stronger effect = lower value; active = viability on the fitted dose curve at most 10% of control; inactive = the rest
Summary of the method: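 Viability of tumor cells grown as complex spheroids with endothelial and stromal cells, exposed to drug combinations. Top concentration at or near clinical Cmax (else 10 microM), diluted in half-log increments.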

[1] = second compound 0.0316 µM, first compound 0.0316 µM
[2] = second compound 0.0316 µM, first compound 0.1 µM
[3] = second compound 0.0316 µM, first compound 0.316 µM
[4] = second compound 0.0316 µM, first compound 1 µM
[5] = second compound 0.0316 µM, first compound 3.16 µM
[6] = second compound 0.0316 µM, first compound 10 µM
[7] = second compound 0.1 µM, first compound 0.0316 µM
[8] = second compound 0.1 µM, first compound 0.1 µM
[9] = second compound 0.1 µM, first compound 0.316 µM
[10] = second compound 0.1 µM, first compound 1 µM
[11] = second compound 0.1 µM, first compound 3.16 µM
[12] = second compound 0.1 µM, first compound 10 µM
[13] = second compound 0.316 µM, first compound 0.0316 µM
[14] = second compound 0.316 µM, first compound 0.1 µM
[15] = second compound 0.316 µM, first compound 0.316 µM
[16] = second compound 0.316 µM, first compound 1 µM
[17] = second compound 0.316 µM, first compound 3.16 µM
[18] = second compound 0.316 µM, first compound 10 µM
[19] = second compound 1 µM, first compound 0.0316 µM
[20] = second compound 1 µM, first compound 0.1 µM
[21] = second compound 1 µM, first compound 0.316 µM
[22] = second compound 1 µM, first compound 1 µM
[23] = second compound 1 µM, first compound 3.16 µM
[24] = second compound 1 µM, first compound 10 µM
[25] = second compound 3.16 µM, first compound 0.0316 µM
[26] = second compound 3.16 µM, first compound 0.1 µM
[27] = second compound 3.16 µM, first compound 0.316 µM
[28] = second compound 3.16 µM, first compound 1 µM
[29] = second compound 3.16 µM, first compound 3.16 µM
[30] = second compound 3.16 µM, first compound 10 µM
[31] = second compound 10 µM, first compound 0.0316 µM
[32] = second compound 10 µM, first compound 0.1 µM
[33] = second compound 10 µM, first compound 0.316 µM
[34] = second compound 10 µM, first compound 1 µM
[35] = second compound 10 µM, first compound 3.16 µM
[36] = second compound 10 µM, first compound 10 µM
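Note: spheroids exposed to drugs for seven days.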
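Throughout, for viability, T/C: 100% = DMSO vehicle control viability.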

Nc1ccn(C2OC(CO)C(O)C2(F)F)c(=O)n1 (stereo not drawn) + Cc1[nH]c2ccc(F)cc2c1-c1nc2c3cccnc3c3ncccc3c2[nH]1
inactive: viability, T/C [1] 102% | viability, T/C [2] 74.9% | viability, T/C [3] 74.1% | viability, T/C [4] 71% | viability, T/C [5] 66.2% | viability, T/C [6] 78.4% | viability, T/C [7] 72.1% | viability, T/C [8] 88.4% | viability, T/C [9] 61.7% | viability, T/C [10] 76.3% | viability, T/C [11] 82.9% | viability, T/C [12] 67.8% | viability, T/C [13] 67% | viability, T/C [14] 74.8% | viability, T/C [15] 79.4% | viability, T/C [16] 73% | viability, T/C [17] 83.2% | viability, T/C [18] 63.6% | viability, T/C [19] 65% | viability, T/C [20] 58.5% | viability, T/C [21] 68.8% | viability, T/C [22] 76.7% | viability, T/C [23] 65.8% | viability, T/C [24] 64.8% | viability, T/C [25] 53.8% | viability, T/C [26] 42% | viability, T/C [27] 50.6% | viability, T/C [28] 50.1% | viability, T/C [29] 51.9% | viability, T/C [30] 59.3% | viability, T/C [31] 39.7% | viability, T/C [32] 43% | viability, T/C [33] 43.4% | viability, T/C [34] 40.2% | viability, T/C [35] 42.2% | viability, T/C [36] 40%
< 0.0316 µM: IC50 (second compound 3.16 µM) | IC50 (second compound 10 µM)
> 10 µM: IC50 (second compound 0.0316 µM) | IC50 (second compound 0.1 µM) | IC50 (second compound 0.316 µM) | IC50 (second compound 1 µM)

CC(C)n1c(=O)n(C)c2cnc3cc(F)c(-c4ccc(OCCCN5CCCCC5)nc4)cc3c21 + CN(C)c1ccc(Nc2c3ccc(NC(=O)CCN4CCCC4)cc3nc3cc(NC(=O)CCN4CCCC4)ccc23)cc1
8.48 µM: IC50 (second compound 0.316 µM)
< 0.0316 µM: IC50 (second compound 10 µM)
inactive: viability, T/C [1] 95.3% | viability, T/C [2] 103% | viability, T/C [3] 99.6% | viability, T/C [4] 92.9% | viability, T/C [5] 69.2% | viability, T/C [6] 53.1% | viability, T/C [7] 91.4% | viability, T/C [8] 99.2% | viability, T/C [9] 100% | viability, T/C [10] 89.2% | viability, T/C [11] 60.1% | viability, T/C [12] 55.5% | viability, T/C [13] 86.7% | viability, T/C [14] 84.3% | viability, T/C [15] 75.7% | viability, T/C [16] 86.1% | viability, T/C [17] 68.7% | viability, T/C [18] 46.9% | viability, T/C [19] 61.7% | viability, T/C [20] 57.4% | viability, T/C [21] 62.1% | viability, T/C [22] 72.7% | viability, T/C [23] 72.7% | viability, T/C [24] 64.8% | viability, T/C [25] 55.9% | viability, T/C [26] 53.6% | viability, T/C [27] 82.4% | viability, T/C [28] 90.1% | viability, T/C [29] 81.3% | viability, T/C [30] 36.6% | viability, T/C [31] 46.4% | viability, T/C [32] 54% | viability, T/C [33] 63.4% | viability, T/C [34] 83.1% | viability, T/C [35] 107% | viability, T/C [36] 26.4%
> 10 µM: IC50 (second compound 0.0316 µM) | IC50 (second compound 0.1 µM) | IC50 (second compound 1 µM) | IC50 (second compound 3.16 µM)

Nc1ccn(C2OC(CO)C(O)C2(F)F)c(=O)n1 (stereo not drawn) + CN(C)c1ccc(Nc2c3ccc(NC(=O)CCN4CCCC4)cc3nc3cc(NC(=O)CCN4CCCC4)ccc23)cc1
> 10 µM: IC50 (second compound 0.0316 µM) | IC50 (second compound 0.1 µM) | IC50 (second compound 0.316 µM) | IC50 (second compound 1 µM) | IC50 (second compound 3.16 µM) | IC50 (second compound 10 µM)
inactive: viability, T/C [1] 97.1% | viability, T/C [2] 109% | viability, T/C [3] 96.2% | viability, T/C [4] 90.6% | viability, T/C [5] 79.6% | viability, T/C [6] 59% | viability, T/C [7] 86.1% | viability, T/C [8] 88.6% | viability, T/C [9] 89.7% | viability, T/C [10] 94.5% | viability, T/C [11] 73.8% | viability, T/C [12] 65% | viability, T/C [13] 71.8% | viability, T/C [14] 78.7% | viability, T/C [15] 59.6% | viability, T/C [16] 56.3% | viability, T/C [17] 56.6% | viability, T/C [18] 66.9% | viability, T/C [19] 70.8% | viability, T/C [20] 53.9% | viability, T/C [21] 53.6% | viability, T/C [22] 51% | viability, T/C [23] 57.9% | viability, T/C [24] 57.8% | viability, T/C [25] 64.2% | viability, T/C [26] 60.5% | viability, T/C [27] 56% | viability, T/C [28] 58.1% | viability, T/C [29] 44.7% | viability, T/C [30] 53.8% | viability, T/C [31] 56.7% | viability, T/C [32] 57.9% | viability, T/C [33] 47.5% | viability, T/C [34] 65.9% | viability, T/C [35] 61.4% | viability, T/C [36] 47.2%

C=CCn1c(=O)c2cnc(Nc3ccc(N4CCN(C)CC4)cc3)nc2n1-c1cccc(C(C)(C)O)n1 + Cc1cnc(CNC(=O)c2c(=O)c3ccc(N4CCCN(C)CC4)nc3n3c2sc2ccccc23)cn1
> 10 µM: IC50 (second compound 0.0316 µM) | IC50 (second compound 0.1 µM) | IC50 (second compound 0.316 µM) | IC50 (second compound 1 µM) | IC50 (second compound 3.16 µM)
inactive: viability, T/C [1] 93.4% | viability, T/C [2] 70.5% | viability, T/C [3] 64.3% | viability, T/C [4] 65.9% | viability, T/C [5] 69.1% | viability, T/C [6] 78% | viability, T/C [7] 75.9% | viability, T/C [8] 86% | viability, T/C [9] 80.2% | viability, T/C [10] 72.2% | viability, T/C [11] 73.1% | viability, T/C [12] 67.8% | viability, T/C [13] 89.8% | viability, T/C [14] 82.1% | viability, T/C [15] 76% | viability, T/C [16] 61.3% | viability, T/C [17] 66% | viability, T/C [18] 61.9% | viability, T/C [19] 76.1% | viability, T/C [20] 83% | viability, T/C [21] 76.5% | viability, T/C [22] 67.9% | viability, T/C [23] 62% | viability, T/C [24] 62.4% | viability, T/C [25] 76.5% | viability, T/C [26] 71.5% | viability, T/C [27] 59.6% | viability, T/C [28] 55.4% | viability, T/C [29] 52.5% | viability, T/C [30] 58% | viability, T/C [31] 57.8% | viability, T/C [32] 66.1% | viability, T/C [33] 65.6% | viability, T/C [34] 54.9% | viability, T/C [35] 58.6% | viability, T/C [36] 48.4%
8.24 µM: IC50 (second compound 10 µM)
